ChEMBL document CHEMBL1201862, “PubChem BioAssay data set” (2004)
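Five compound concentrations were applied to cells in 96-well plates for 48 hours; endpoints were derived by simple linear interpolation of the resulting dose-response curve. At the GI50, growth is halved.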 Calls of active or inactive are those of the source. Cut-off read from the data, not from the text of the source: active = GI50 up to about 1.1 µM and inactive = higher.

Tests used:
Assay in all cases: growth of human tumour cells (NCI), 48 h
[1] = system: HOP-92
[2] = system: UACC-257
[3] = system: IGROV-1
[4] = system: EKVX
[5] = system: SNB-75
[6] = system: NCI-H460
[7] = system: SW-620
[8] = system: KM12
[9] = system: UACC-62
[10] = system: BT-549
[11] = system: NCI-H226
[12] = system: HCT-15
[13] = system: OVCAR-5
[14] = system: SN12C
[15] = system: SR
[16] = system: CAKI-1
[17] = system: OVCAR-4
[18] = system: OVCAR-3
[19] = system: SF-268
[20] = system: DU-145

Compound	GI50 [1]	GI50 [2]	GI50 [3]	GI50 [4]	GI50 [5]	GI50 [6]	GI50 [7]	GI50 [8]	GI50 [9]	GI50 [10]	GI50 [11]	GI50 [12]	GI50 [13]	GI50 [14]	GI50 [15]	GI50 [16]	GI50 [17]	GI50 [18]	GI50 [19]	GI50 [20]
CCOC(=O)C1(C)CCCc2sc(N)c(C#N)c21 (stereo not given)	> 100 µM (inactive)	> 100 µM (inactive)	> 100 µM (inactive)	> 100 µM (inactive)	69 µM (inactive)	> 100 µM (inactive)	> 100 µM (inactive)	> 100 µM (inactive)	> 100 µM (inactive)	> 100 µM (inactive)	> 100 µM (inactive)	> 100 µM	> 100 µM (inactive)	> 100 µM (inactive)	> 100 µM (inactive)	–	–	–	–	–
CC1CC/C(=C\c2ccc(N(C)C)cc2)C(=O)/C1=C/c1ccc(N(C)C)cc1 (stereo not given)	–	> 100 µM (inactive)	> 100 µM (inactive)	> 100 µM (inactive)	> 100 µM (inactive)	–	> 100 µM (inactive)	> 100 µM (inactive)	> 100 µM (inactive)	> 100 µM (inactive)	> 100 µM (inactive)	> 100 µM	> 100 µM (inactive)	> 100 µM (inactive)	> 100 µM (inactive)	> 100 µM (inactive)	> 100 µM (inactive)	> 100 µM (inactive)	–	–
CCOC(=O)CCC(NC(=O)c1ccc(Oc2nc3ccc(C(F)(F)F)cc3nc2-c2ccccc2)cc1)C(=O)OCC (stereo not given)	18.9 µM (inactive)	> 64.7 µM (inactive)	22.7 µM (inactive)	12.9 µM (inactive)	9.46 µM (inactive)	47.1 µM (inactive)	> 100 µM (inactive)	11.2 µM (inactive)	23.1 µM (inactive)	–	4.32 µM (inactive)	> 100 µM	> 68.7 µM (inactive)	> 50.7 µM (inactive)	> 100 µM (inactive)	7.19 µM (inactive)	6.22 µM (inactive)	30.8 µM (inactive)	6.55 µM (inactive)	> 100 µM (inactive)
CC1=NN(c2cccc(Cl)c2)C2(C1=Cc1ccccc1)C(Cl)C(=O)N2c1nc2ccccc2s1 (stereo not given)	9.14 µM (inactive)	24 µM (inactive)	15.1 µM (inactive)	33.9 µM (inactive)	–	15.2 µM (inactive)	19.8 µM (inactive)	17.3 µM (inactive)	–	–	23.8 µM (inactive)	15.9 µM	21.3 µM (inactive)	–	24.2 µM (inactive)	17.7 µM (inactive)	19.1 µM (inactive)	16.3 µM (inactive)	23.2 µM (inactive)	15 µM (inactive)
CSc1nc2c(=O)n(-c3ccccc3)c(=S)n(-c3ccccc3)c2s1	25.4 µM (inactive)	> 100 µM (inactive)	> 100 µM (inactive)	–	41.6 µM (inactive)	> 100 µM (inactive)	> 100 µM (inactive)	49 µM (inactive)	–	–	31.1 µM (inactive)	> 100 µM	> 100 µM (inactive)	37.9 µM (inactive)	> 100 µM (inactive)	–	71.4 µM (inactive)	67 µM (inactive)	65 µM (inactive)	> 100 µM (inactive)
O=C(O)c1ccccc1SCc1cccc2c(=O)c3ccc(Cl)cc3oc12	–	> 50 µM (inactive)	49.5 µM (inactive)	> 50 µM (inactive)	15.6 µM (inactive)	–	> 50 µM (inactive)	> 50 µM (inactive)	21.4 µM (inactive)	48.8 µM (inactive)	> 50 µM (inactive)	> 50 µM	> 50 µM (inactive)	> 50 µM (inactive)	39 µM (inactive)	> 50 µM (inactive)	41.5 µM (inactive)	> 50 µM (inactive)	–	–
Clc1cc2nc(C3CCCO3)[nH]c2cc1Cl (stereo not given)	85.3 µM (inactive)	> 100 µM (inactive)	61.9 µM (inactive)	87.5 µM (inactive)	30.1 µM (inactive)	–	45.8 µM (inactive)	32.7 µM (inactive)	45.8 µM (inactive)	26.2 µM (inactive)	> 100 µM (inactive)	31.6 µM	> 100 µM (inactive)	> 100 µM (inactive)	37.6 µM (inactive)	–	46.8 µM (inactive)	32.5 µM (inactive)	67 µM (inactive)	–
